Key:
Type in all cases: in vivo
[1] = tested on: ivy-leaved morning glory (Ipomoea hederacea); assay: Test G Pre-Emergence Protocol; details: Ipomoea, pre-emergence, 312 h, evaluated after 13 days; for pest or weed control at 15.625 g/ha: 15.625 g ai/ha, read-out: Morning-glory, Ivy-leaved damage rating (100=total damage to plant; 0=no damage to plant); for pest or weed control at 62.5 g/ha: 62.5 g ai/ha, 100=total damage to plant, 0=no damage to plant, read-out: plant damage rating, Morningglory, Ivy-leaved; for pest or weed control at 250 g/ha: 250 g ai/ha, read-out: Morningglory, Ivy-leaved damage rating (100=total damage to plant; 0=no damage to plant)
Method in brief: (§1)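 Glasshouse pre-emergence test: soil-sown seeds, sprayed after 1 d at 15.625, 62.5 or 250 g/ha. Conditions 24/16° C day/night, 14 h light, 65% humidity, watering twice daily. Rating 13 d post-spray (100 = total damage).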

[2] = tested on: redroot pigweed (Amaranthus retroflexus); assay: Test G Pre-Emergence Protocol; details: Amaranthus retroflexus, pre-emergence, 312 h, evaluated after 13 days; for pest or weed control at 15.625 g/ha: 15.625 g ai/ha; for pest or weed control at 15.625 g/ha / pest or weed control at 250 g/ha: read-out: Pigweed, Redroot damage rating (100=total damage to plant; 0=no damage to plant); for pest or weed control at 62.5 g/ha: 62.5 g ai/ha, 100=total damage to plant, 0=no damage to plant, read-out: plant damage rating, Pigweed, Redroot; for pest or weed control at 250 g/ha: 250 g ai/ha
Method in brief: as §1

corn (Zea mays) [3] = assay: Test G Pre-Emergence Protocol; details: Zea mays, pre-emergence, 312 h, evaluated after 13 days; for plant injury at 15.625 g/ha: 15.625 g ai/ha; for plant injury at 15.625 g/ha / plant injury at 250 g/ha: read-out: Corn damage rating (100=total damage to plant; 0=no damage to plant); for plant injury at 62.5 g/ha: 62.5 g ai/ha, 100=total damage to plant, 0=no damage to plant, read-out: plant damage rating, Corn; for plant injury at 250 g/ha: 250 g ai/ha
Method in brief: as §1

[4] = tested on: velvetleaf (Abutilon theophrasti); assay: Test G Pre-Emergence Protocol; details: Abutilon theophrasti, pre-emergence, 312 h, evaluated after 13 days; for pest or weed control at 15.625 g/ha: 15.625 g ai/ha; for pest or weed control at 15.625 g/ha / pest or weed control at 250 g/ha: read-out: Velvetleaf damage rating (100=total damage to plant; 0=no damage to plant); for pest or weed control at 62.5 g/ha: 62.5 g ai/ha, 100=total damage to plant, 0=no damage to plant, read-out: plant damage rating, Velvetleaf; for pest or weed control at 250 g/ha: 250 g ai/ha
Method in brief: as §1

[5] = tested on: barnyardgrass (Echinochloa crus-galli); assay: Test G Pre-Emergence Protocol; details: Echinochloa crus-galli, pre-emergence, 312 h, evaluated after 13 days; for pest or weed control at 15.625 g/ha: 15.625 g ai/ha, read-out: Barnyard grass damage rating (100=total damage to plant; 0=no damage to plant); for pest or weed control at 62.5 g/ha: 62.5 g ai/ha, 100=total damage to plant, 0=no damage to plant, read-out: plant damage rating, Barnyardgrass; for pest or weed control at 250 g/ha: 250 g ai/ha, read-out: Barnyardgrass damage rating (100=total damage to plant; 0=no damage to plant)
Method in brief: as §1

[6] = tested on: giant foxtail (Setaria faberi); assay: Test G Pre-Emergence Protocol; details: Setaria faberi, pre-emergence, 312 h, evaluated after 13 days; for pest or weed control at 15.625 g/ha: 15.625 g ai/ha; for pest or weed control at 15.625 g/ha / pest or weed control at 250 g/ha: read-out: Foxtail, Giant damage rating (100=total damage to plant; 0=no damage to plant); for pest or weed control at 62.5 g/ha: 62.5 g ai/ha, 100=total damage to plant, 0=no damage to plant, read-out: plant damage rating, Foxtail, Giant; for pest or weed control at 250 g/ha: 250 g ai/ha
Method in brief: as §1

[7] = tested on: ivy-leaved morning glory (Ipomoea hederacea); assay: Test G Post-Emergence Protocol; details: Ipomoea, post-emergence, 312 h; for pest or weed control at 15.625 g/ha: 15.625 g ai/ha, evaluated after 13 days (100=total damage to plant; 0=no damage to plant), read-out: Morningglory, Ivy-leaved damage rating; for pest or weed control at 62.5 g/ha: 62.5 g ai/ha, read-out: Morningglory, Ivy-leaved damage rating (100=total damage to plant; 0=no damage to plant); for pest or weed control at 62.5 g/ha / pest or weed control at 250 g/ha: evaluated after 13 days; for pest or weed control at 250 g/ha: 250 g ai/ha, read-out: damage to plant, Morningglory, Ivy-leaved (100=total damage to plant; 0=no damage to plant)
Method in brief: (§2)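 Foliar application was made 8 days after sowing, using an aqueous spray of the active in acetone/water (50:50) with 0.5% Tween 20, at doses of 15.625, 62.5 or 250 g/ha. Injury was assessed 13 days later, where 100 meant the plant was fully damaged.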

[8] = tested on: redroot pigweed (Amaranthus retroflexus); assay: Test G Post-Emergence Protocol; details: Amaranthus retroflexus, post-emergence, 312 h; for pest or weed control at 15.625 g/ha: 15.625 g ai/ha, evaluated after 13 days (100=total damage to plant; 0=no damage to plant), read-out: Pigweed, Redroot damage rating; for pest or weed control at 62.5 g/ha: 62.5 g ai/ha, read-out: Pigweed, Redroot damage rating (100=total damage to plant; 0=no damage to plant); for pest or weed control at 62.5 g/ha / pest or weed control at 250 g/ha: evaluated after 13 days; for pest or weed control at 250 g/ha: 250 g ai/ha, read-out: damage to plant, Pigweed, Redroot (100=total damage to plant; 0=no damage to plant)
Method in brief: as §2

corn (Zea mays) [9] = assay: Test G Post-Emergence Protocol; details: Zea mays, post-emergence, 312 h; for plant injury at 15.625 g/ha: 15.625 g ai/ha, evaluated after 13 days (100=total damage to plant; 0=no damage to plant), read-out: Corn damage rating; for plant injury at 62.5 g/ha: 62.5 g ai/ha, read-out: Corn damage rating (100=total damage to plant; 0=no damage to plant); for plant injury at 62.5 g/ha / plant injury at 250 g/ha: evaluated after 13 days; for plant injury at 250 g/ha: 250 g ai/ha, read-out: damage to plant, Corn (100=total damage to plant; 0=no damage to plant)
Method in brief: as §2

[10] = tested on: velvetleaf (Abutilon theophrasti); assay: Test G Post-Emergence Protocol; details: Abutilon theophrasti, post-emergence, 312 h; for pest or weed control at 15.625 g/ha: 15.625 g ai/ha, evaluated after 13 days (100=total damage to plant; 0=no damage to plant), read-out: Velvetleaf damage rating; for pest or weed control at 62.5 g/ha: 62.5 g ai/ha, read-out: Velvetleaf damage rating (100=total damage to plant; 0=no damage to plant); for pest or weed control at 62.5 g/ha / pest or weed control at 250 g/ha: evaluated after 13 days; for pest or weed control at 250 g/ha: 250 g ai/ha, read-out: damage to plant, Velvetleaf (100=total damage to plant; 0=no damage to plant)
Method in brief: as §2

[11] = tested on: barnyardgrass (Echinochloa crus-galli); assay: Test G Post-Emergence Protocol; details: Echinochloa crus-galli, post-emergence, 312 h; for pest or weed control at 15.625 g/ha: 15.625 g ai/ha, evaluated after 13 days (100=total damage to plant; 0=no damage to plant), read-out: Barnyardgrass damage rating; for pest or weed control at 62.5 g/ha: 62.5 g ai/ha, read-out: Barnyardgrass damage rating (100=total damage to plant; 0=no damage to plant); for pest or weed control at 62.5 g/ha / pest or weed control at 250 g/ha: evaluated after 13 days; for pest or weed control at 250 g/ha: 250 g ai/ha, read-out: damage to plant, Barnyardgrass (100=total damage to plant; 0=no damage to plant)
Method in brief: as §2

[12] = tested on: giant foxtail (Setaria faberi); assay: Test G Post-Emergence Protocol; details: Setaria faberi, post-emergence, 312 h; for pest or weed control at 15.625 g/ha: 15.625 g ai/ha, evaluated after 13 days (100=total damage to plant; 0=no damage to plant), read-out: Foxtail, Giant damage rating; for pest or weed control at 62.5 g/ha: 62.5 g ai/ha, read-out: Foxtail, Giant damage rating (100=total damage to plant; 0=no damage to plant); for pest or weed control at 62.5 g/ha / pest or weed control at 250 g/ha: evaluated after 13 days; for pest or weed control at 250 g/ha: 250 g ai/ha, read-out: damage to plant, Foxtail, Giant (100=total damage to plant; 0=no damage to plant)
Method in brief: as §2

Row | Compound | pest or weed control at 15.625 g/ha [1] | pest or weed control at 62.5 g/ha [1] | pest or weed control at 250 g/ha [1] | pest or weed control at 15.625 g/ha [2] | pest or weed control at 62.5 g/ha [2] | pest or weed control at 250 g/ha [2] | plant injury at 15.625 g/ha (corn (Zea mays) [3]) | plant injury at 62.5 g/ha (corn (Zea mays) [3]) | plant injury at 250 g/ha (corn (Zea mays) [3]) | pest or weed control at 15.625 g/ha [4] | pest or weed control at 62.5 g/ha [4] | pest or weed control at 250 g/ha [4] | pest or weed control at 15.625 g/ha [5] | pest or weed control at 62.5 g/ha [5] | pest or weed control at 250 g/ha [5] | pest or weed control at 15.625 g/ha [6] | pest or weed control at 62.5 g/ha [6] | pest or weed control at 250 g/ha [6] | pest or weed control at 15.625 g/ha [7] | pest or weed control at 62.5 g/ha [7] | other results
1 | CSc1nccc(NC(=O)[C@@H]2C(=O)N(C)C[C@H]2c2ccc(C(F)(F)F)cc2)n1 (racemic) [Compound 1516] | 0% | 0% | 0% | 0% | 0% | 0% | 0% | 0% | 0% | 0% | 0% | 0% | 0% | 0% | 0% | 0% | 0% | 0% | 0% | 0% | pest or weed control at 250 g/ha [7]: 0%; pest or weed control at 15.625 g/ha [8]: 0%; pest or weed control at 62.5 g/ha [8]: 0%; pest or weed control at 250 g/ha [8]: 0%; plant injury at 15.625 g/ha (corn (Zea mays) [9]): 0%; plant injury at 62.5 g/ha (corn (Zea mays) [9]): 0%; plant injury at 250 g/ha (corn (Zea mays) [9]): 0%; pest or weed control at 15.625 g/ha [10]: 0%; pest or weed control at 62.5 g/ha [10]: 0%; pest or weed control at 250 g/ha [10]: 0%; pest or weed control at 15.625 g/ha [11]: 0%; pest or weed control at 62.5 g/ha [11]: 0%; pest or weed control at 250 g/ha [11]: 0%; pest or weed control at 15.625 g/ha [12]: 0%; pest or weed control at 62.5 g/ha [12]: 0%; pest or weed control at 250 g/ha [12]: 0%
2 | CN1C[C@@H](c2ccc(C(F)(F)F)cc2)[C@H](C(=O)Nc2cccnc2Cl)C1=O (racemic) [Compound 1517] | 0% | 0% | 0% | 0% | 0% | 60% | 0% | 0% | 20% | 0% | 0% | 0% | 0% | 70% | 90% | 30% | 70% | 80% | 20% | 30% | pest or weed control at 250 g/ha [7]: 70%; pest or weed control at 15.625 g/ha [8]: 0%; pest or weed control at 62.5 g/ha [8]: 0%; pest or weed control at 250 g/ha [8]: 20%; plant injury at 15.625 g/ha (corn (Zea mays) [9]): 0%; plant injury at 62.5 g/ha (corn (Zea mays) [9]): 10%; plant injury at 250 g/ha (corn (Zea mays) [9]): 80%; pest or weed control at 15.625 g/ha [10]: 0%; pest or weed control at 62.5 g/ha [10]: 10%; pest or weed control at 250 g/ha [10]: 20%; pest or weed control at 15.625 g/ha [11]: 0%; pest or weed control at 62.5 g/ha [11]: 50%; pest or weed control at 250 g/ha [11]: 70%; pest or weed control at 15.625 g/ha [12]: 20%; pest or weed control at 62.5 g/ha [12]: 60%; pest or weed control at 250 g/ha [12]: 60%
3 | CN1C[C@@H](c2ccc(C(F)(F)F)cc2)[C@H](C(=O)Nc2cc(Cl)nc(Cl)c2)C1=O (racemic) [Compound 1519] | 0% | 0% | 0% | 0% | 0% | 0% | 0% | 0% | 0% | 0% | 0% | 0% | 0% | 0% | 0% | 0% | 0% | 0% | 0% | 0% | pest or weed control at 250 g/ha [7]: 0%; pest or weed control at 15.625 g/ha [8]: 0%; pest or weed control at 62.5 g/ha [8]: 0%; pest or weed control at 250 g/ha [8]: 0%; plant injury at 15.625 g/ha (corn (Zea mays) [9]): 10%; plant injury at 62.5 g/ha (corn (Zea mays) [9]): 10%; plant injury at 250 g/ha (corn (Zea mays) [9]): 0%; pest or weed control at 15.625 g/ha [10]: 0%; pest or weed control at 62.5 g/ha [10]: 0%; pest or weed control at 250 g/ha [10]: 0%; pest or weed control at 15.625 g/ha [11]: 0%; pest or weed control at 62.5 g/ha [11]: 0%; pest or weed control at 250 g/ha [11]: 0%; pest or weed control at 15.625 g/ha [12]: 0%; pest or weed control at 62.5 g/ha [12]: 0%; pest or weed control at 250 g/ha [12]: 0%
